Data reported in patent US9603833B2, “Benzene or thiophene derivative and use thereof as VAP-1 inhibitor” (R-Tech Ueno, Ltd., priority 2008, dated 2017).
Where a name gives a salt, the structure may show the parent alone.

What was measured:
rat VAP-1 enzyme (SSAO) = rat VAP-1 enzyme (SSAO) (Rattus norvegicus (Rat), UniProt O08590); assay: Inhibitory effect on rat VAP-1 enzyme (SSAO), radiochemical-enzyme assay using 14C-benzylamine; type: biochemical; settings: rat VAP-1 expressed in a cell, cell extract; 14C-benzylamine 1×10^−5 mol/L; 37° C., 2 hours
Method: (§1) The compounds of the present invention obtained in Production Examples were examined for the inhibitory effect on human and rat VAP-1 enzyme (SSAO) by the following method.
(§2) The VAP-1 enzyme (SSAO) activity in both human and rat was measured by a radiochemical-enzyme assay using ^14C-benzylamine as an artificial substrate. Human or rat VAP-1 was cloned from the cDNA library and expressed in a cell. The cell extract was preincubated with a test compound solution (final concentration 1×10^−7-1×10^−10 mol/L) at room temperature for 20 minutes. Then, ^14C-benzylamine (final concentration 1×10^−5 mol/L) was added, and the mixture was incubated at a final volume of 200 μL at 37° C. for 2 hours. The enzyme reaction was stopped by addition of 2 mol/L (200 μL) citric acid. The oxidation product was extracted with 1 mL toluene/ethyl acetate (1:1), and the radioactivity thereof was measured by a liquid scintillation counter.

[1] = target: human VAP-1 enzyme (SSAO) (Homo sapiens (Human), UniProt Q16853); assay: Inhibitory effect on human VAP-1 enzyme (SSAO), radiochemical-enzyme assay using 14C-benzylamine; type: biochemical; settings: human VAP-1 expressed in a cell, cell extract; 14C-benzylamine 1×10^−5 mol/L; 37° C., 2 hours
Method: as §1, §2

Chain of human VAP-1 enzyme (SSAO) (Q16853 whole entry): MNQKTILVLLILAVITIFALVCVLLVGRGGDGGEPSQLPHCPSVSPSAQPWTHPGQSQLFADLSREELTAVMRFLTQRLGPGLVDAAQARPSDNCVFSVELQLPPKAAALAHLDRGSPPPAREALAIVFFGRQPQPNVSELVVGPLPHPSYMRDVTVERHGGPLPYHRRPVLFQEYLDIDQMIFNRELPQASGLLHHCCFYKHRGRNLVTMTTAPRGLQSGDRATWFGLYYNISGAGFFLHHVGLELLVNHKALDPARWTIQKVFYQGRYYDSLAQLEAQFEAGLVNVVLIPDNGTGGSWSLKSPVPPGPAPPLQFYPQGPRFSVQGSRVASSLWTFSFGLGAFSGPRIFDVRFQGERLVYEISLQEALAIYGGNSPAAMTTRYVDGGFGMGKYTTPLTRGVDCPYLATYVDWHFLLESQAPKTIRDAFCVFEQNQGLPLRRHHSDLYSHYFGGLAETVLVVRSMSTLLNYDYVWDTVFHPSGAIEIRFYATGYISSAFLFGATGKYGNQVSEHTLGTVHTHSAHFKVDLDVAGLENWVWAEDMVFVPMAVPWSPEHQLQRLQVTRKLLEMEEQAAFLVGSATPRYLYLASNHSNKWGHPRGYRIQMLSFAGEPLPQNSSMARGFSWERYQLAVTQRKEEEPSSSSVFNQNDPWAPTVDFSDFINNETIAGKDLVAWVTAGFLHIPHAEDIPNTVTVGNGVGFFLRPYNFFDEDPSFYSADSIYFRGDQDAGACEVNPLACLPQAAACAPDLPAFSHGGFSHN
Chain of rat VAP-1 enzyme (SSAO) (O08590 whole entry): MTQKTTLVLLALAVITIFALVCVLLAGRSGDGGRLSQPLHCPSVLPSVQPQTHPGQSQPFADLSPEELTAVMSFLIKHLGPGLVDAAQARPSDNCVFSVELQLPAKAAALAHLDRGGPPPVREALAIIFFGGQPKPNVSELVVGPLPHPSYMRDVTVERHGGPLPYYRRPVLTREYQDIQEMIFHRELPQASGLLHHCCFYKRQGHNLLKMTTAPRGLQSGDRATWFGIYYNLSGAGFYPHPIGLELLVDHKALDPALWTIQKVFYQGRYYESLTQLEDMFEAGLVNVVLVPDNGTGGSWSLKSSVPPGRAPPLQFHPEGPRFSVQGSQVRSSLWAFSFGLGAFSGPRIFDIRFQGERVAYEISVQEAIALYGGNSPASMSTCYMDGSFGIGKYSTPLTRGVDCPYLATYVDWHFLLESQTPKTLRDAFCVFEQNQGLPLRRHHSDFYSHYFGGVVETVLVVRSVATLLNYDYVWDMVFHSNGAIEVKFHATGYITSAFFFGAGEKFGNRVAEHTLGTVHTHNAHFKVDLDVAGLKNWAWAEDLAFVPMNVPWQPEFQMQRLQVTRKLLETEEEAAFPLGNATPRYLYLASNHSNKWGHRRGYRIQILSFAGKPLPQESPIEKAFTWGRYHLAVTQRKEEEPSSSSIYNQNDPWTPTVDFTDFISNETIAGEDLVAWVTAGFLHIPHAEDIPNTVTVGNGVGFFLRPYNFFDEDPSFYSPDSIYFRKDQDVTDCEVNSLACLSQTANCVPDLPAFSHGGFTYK

Row | SMILES | IC50 (rat VAP-1 enzyme (SSAO)) [nM] | IC50 [1] [nM]
1 | CCN(CC)c1ccc(CCc2ccc(CC(=O)NN)cc2)cc1 [Production Example 30, 2-(4-{2-[4-(diethylamino)phenyl]ethyl}phenyl)acetohydrazide dihydrochloride] | 2.2 | 13
2 | NNC(=O)Cc1ccc(CCc2cncc(N3CCNCC3)c2)cc1 [Production Example 102, 2-{4-[2-(5-piperazin-1-ylpyridin-3-yl)ethyl]phenyl}acetohydrazide tetrahydrochloride] | 9.4 | 19.4
3 | CCN(C)c1ccc(CCc2ccc(CC(=O)NN)cc2)cn1 [Production Example 89, 2-[4-(2-{6-[ethyl(methyl)amino]pyridin-3-yl}ethyl)phenyl]acetohydrazide trihydrochloride] | 0.9 | 15.4
4 | CC(=O)N1CCN(c2ccc(CCc3ccc(COC(=O)NN)cc3)nc2)CC1 [Production Example 108, 4-{2-[5-(4-acetylpiperazin-1-yl)pyridin-2-yl]ethyl}benzyl hydrazinecarboxylate trihydrochloride] | 0.8 | 0.9
5 | CC(=O)N1CCN(c2cnc(CCc3ccc(CC(=O)NN)cc3)cn2)CC1 [Production Example 101, 2-(4-{2-[5-(4-acetylpiperazin-1-yl)pyrazin-2-yl]ethyl}phenyl)acetohydrazide trihydrochloride] | 2.1 | 3.4
6 | CC(=O)N1CCN(c2ccc(CCc3ccc(CCC(=O)NN)cc3)nc2)CC1 [Production Example 119, 3-(4-{2-[5-(4-acetylpiperazin-1-yl)pyridin-2-yl]ethyl}phenyl)propanehydrazide trihydrochloride] | 8.7 | 4.7
7 | CC(=O)N1CCN(c2ccc(CCc3ccc(CCNC(=O)NN)s3)nc2)CC1 [Production Example 117, N-[2-(5-{2-[5-(4-acetylpiperazin-1-yl)pyridin-2-yl]ethyl}thiophen-2-yl)ethyl]hydrazinecarboxamide] | 2.7 | 18.7
8 | CCCN(CCC)c1ccc(CCc2ccc(CC(=O)NN)cc2)cn1 [Production Example 92, 2-(4-{2-[6-(dipropylamino)pyridin-3-yl]ethyl}phenyl)acetohydrazide trihydrochloride] | 0.8 | 20.5
9 | CC(=O)N1CCN(c2ccc(CCc3ccc(COC(=O)NN)cc3F)nc2)CC1 [Production Example 113, 4-{2-[5-(4-acetylpiperazin-1-yl)pyridin-2-yl]ethyl}-3-fluorobenzyl hydrazinecarboxylate trihydrochloride] | 0.7 | 0.9
10 | CCN(CC)c1ccc(CCc2ccc(CC(=O)NN)cc2)nc1 [Production Example 88, 2-(4-{2-[5-(diethylamino)pyridin-2-yl]ethyl}phenyl)acetohydrazide trihydrochloride] | 0.9 | 10.2
11 | NNC(=O)Cc1ccc(CCc2ccc(N3CCNCC3)s2)cc1 [Production Example 74, 2-{4-[2-(5-piperazin-1-ylthiophen-2-yl)ethyl]phenyl}acetohydrazide trihydrochloride] | 4.1 | 12.2
12 | NNC(=O)Cc1ccc(CCc2cc(N3CCNCC3)ncn2)cc1 [Production Example 106, 2-{4-[2-(6-piperazin-1-ylpyrimidin-4-yl)ethyl]phenyl}acetohydrazide tetrahydrochloride] | 7.5 | 19
13 | NNC(=O)Cc1ccc(CCc2ccc(N3CCNCC3)cn2)cc1 [Production Example 86, 2-{4-[2-(5-piperazin-1-ylpyridin-2-yl)ethyl]phenyl}acetohydrazide tetrahydrochloride] | 1 | 9.8
14 | CC(=O)N1CCN(c2ccc(CCc3csc(CCCOC(=O)NN)c3)nc2)CC1 [Production Example 124, 3-(4-{2-[5-(4-acetylpiperazin-1-yl)pyridin-2-yl]ethyl}thiophen-2-yl)propylhydrazinecarboxylate] | 5.5 | 4.7
15 | CC(=O)N1CCN(c2ccc(CCc3ccc(CC(=O)NN)s3)nc2)CC1 [Production Example 120, 2-(5-{2-[5-(4-acetylpiperazin-1-yl)pyridin-2-yl]ethyl}thiophen-2-yl)acetohydrazide] | 0.6 | 3.7
16 | CC(=O)N1CCN(c2ccc(CCc3cccc(COC(=O)NN)c3)nc2)CC1 [Production Example 111, 3-{2-[5-(4-acetylpiperazin-1-yl)pyridin-2-yl]ethyl}benzyl hydrazinecarboxylate trihydrochloride] | 0.4 | 0.5
17 | NNC(=O)Cc1ccc(CCc2ccc(N3CCOCC3)nc2)cc1 [Production Example 12, {4-[2-(6-morpholin-4-ylpyridin-3-yl)ethyl]phenyl}acetohydrazide dihydrochloride] | 1.1 | 20.8

Row | SMILES | IC50 (rat VAP-1 enzyme (SSAO)) [nM] | IC50 [1] [nM]
18 | CC(=O)N1CCN(c2ccc(CCc3ccc(CNC(=O)NN)cc3)nc2)CC1 [Production Example 109, N-(4-{2-[5-(4-acetylpiperazin-1-yl)pyridin-2-yl]ethyl}benzyl)hydrazinecarboxamide trihydrochloride] | 1.4 | 3.7
19 | CCN(CC)c1ccc(CCc2ccc(CC(=O)NN)cc2)cn1 [Production Example 85, 2-(4-{2-[6-(diethylamino)pyridin-3-yl]ethyl}phenyl)acetohydrazide trihydrochloride] | 1.9 | 15.7
20 | NNC(=O)Cc1ccc(CCc2ccc(N3CCCCC3)nc2)cc1 [Production Example 45, 2-{4-[2-(6-piperidin-1-ylpyridin-3-yl)ethyl]phenyl}acetohydrazide trihydrochloride] | 1.2 | 17.2
21 | CC(=O)N1CCN(c2ccc(CCc3ccc(C(=O)NN)s3)nc2)CC1 [Production Example 116, 5-{2-[5-(4-acetylpiperazin-1-yl)pyridin-2-yl]ethyl}thiophene-2-carbohydrazide] | 9.8 | 9.5
22 | CC(=O)N1CCN(c2ccc(CCc3ccc(CCOC(=O)NN)cc3)nc2)CC1 [Production Example 122, 2-(4-{2-[5-(4-acetylpiperazin-1-yl)pyridin-2-yl]ethyl}phenyl)ethyl hydrazinecarboxylate trihydrochloride] | 8 | 6.6
23 | CCN(CCN)c1ccc(CCc2ccc(CC(=O)NN)cc2)cc1 [Production Example 83, 2-[4-(2-{4-[(2-aminoethyl)(ethyl)amino]phenyl}ethyl)phenyl]acetohydrazide trihydrochloride] | 5.8 | 20.4
24 | CC(=O)N1CCN(c2ccc(CCc3csc(CCC(=O)NN)c3)nc2)CC1 [Production Example 121, 3-(4-{2-[5-(4-acetylpiperazin-1-yl)pyridin-2-yl]ethyl}thiophen-2-yl)propanehydrazide trihydrochloride] | 1.6 | 2.2
25 | CC(=O)N1CCN(c2ccc(CCc3ccc(CCOC(=O)NN)s3)nc2)CC1 [Production Example 115, 2-(5-{2-[5-(4-acetylpiperazin-1-yl)pyridin-2-yl]ethyl}thiophen-2-yl)ethyl hydrazinecarboxylate] | 10.1 | 4
26 | NNC(=O)Cc1ccc(CCc2ccc(N3CCCC3)nc2)cc1 [Production Example 44, 2-{4-[2-(6-pyrrolidin-1-ylpyridin-3-yl)ethyl]phenyl}acetohydrazide trihydrochloride] | 5.4 | 18.3
27 | CC(=O)N1CCN(c2ccc(CCc3ccc(OC(=O)NN)cc3)nc2)CC1 [Production Example 110, 4-{2-[5-(4-acetylpiperazin-1-yl)pyridin-2-yl]ethyl}phenyl hydrazinecarboxylate trihydrochloride] | 1.6 | 3.5
28 | NNC(=O)Cc1ccc(CCc2csc(N3CCNCC3)n2)cc1 [Production Example 95, 2-{4-[2-(2-piperazin-1-yl-1,3-thiazol-4-yl)ethyl]phenyl}acetohydrazide dihydrochloride] | 3.5 | 6.3
29 | NNC(=O)Cc1ccc(CCc2ccc(N3CCNCC3)cc2C(F)(F)F)cc1 [Production Example 59, 2-(4-{2-[4-piperazin-1-yl-2-(trifluoromethyl)phenyl]ethyl}phenyl)acetohydrazide trihydrochloride] | 6.1 | 11.3
30 | NNC(=O)Cc1ccc(CCc2csc(C3CCNCC3)n2)cc1 [Production Example 20, 2-{4-[2-(2-piperidin-4-yl-1,3-thiazol-4-yl)ethyl]phenyl}acetohydrazide dihydrochloride] | 5.1 | 23.3
31 | CC(=O)N1CCN(c2ccc(CCc3ccc(CC(=O)NN)cc3)cn2)CC1 [Production Example 47, 2-(4-{2-[6-(4-acetylpiperazin-1-yl)pyridin-3-yl]ethyl}phenyl)acetohydrazide trihydrochloride] | 3.6 | 16.1
32 | CCCN(C)c1ccc(CCc2ccc(CC(=O)NN)cc2)cn1 [Production Example 90, 2-[4-(2-{6-[methyl(propyl)amino]pyridin-3-yl}ethyl)phenyl]acetohydrazide trihydrochloride] | 1.4 | 22.1
33 | NNC(=O)Cc1ccc(CCc2ccc(CN3CCOCC3)cc2)cc1 [Production Example 70, 2-(4-{2-[4-(morpholin-4-ylmethyl)phenyl]ethyl}phenyl)acetohydrazide dihydrochloride] | 1.3 | 17.6
